This note sets out measurements from patent publication US9492365B2, “Use of caftaric acid and derivatives in food supplement for regulating skin pigmentation” (Nestec S.A., priority 2010, dated 2016).

For one series, the system named is B16 murine melanocytes. Briefly: Production of melanin by B16 murine melanocyte cell line. The settings on record: B16 melanocytes treated for 72 hours, presence or absence of NDP-MSH; relative to control (FIG. 1); Kojic acid at 400 μg/mL. Format: cell-based. The protocol:
In order to evaluate the potential beneficial effect of ingredients towards skin de- or pro-pigmentation we used 2D culture of murine melanocytes (B16) and we performed 2 tests: 1—assessment of melanin production and 2—assessment of tyrosinase production. 1. The cell culture conditions. • B16 cells were cultured in DMEM 1 g/L glucose without phenol red supplemented with 10% foetal calf serum, in a humidified chamber at 37° C. and containing 5% CO2. 2. The production of melanin by B16 murine melanocyte cell line. • Cells were incubated with the selected ingredients or the test references (Kojic acid at 400 μg/mL) for 72 hours, in the presence or absence of NDP-MSH an analog of MSH. The total quantity of melanin (extracellular and intracellular) was evaluated by measurement of the optical density at 405 nm of each sample against melanin standards in presence or in absence of NDP-MSH.

For the next series, the system named is HDF. Kind of series: Highest non cytotoxic concentration on HDF. The settings on record: HDF cells. Format: cell-based.
The test system of another series is HPEK. Kind of series: Highest non cytotoxic concentration on HPEK. Format: cell-based, human. Conditions: HPEK cells.
The subject of the next series is tyrosinase. Kind of series: Production of tyrosinase by B16 murine melanocyte cell line (immunolabeling). The class given is cell-based. Conditions: B16 melanocytes, 48 hours, immunolabeling (FIG. 2). The protocol:
In order to evaluate the potential beneficial effect of ingredients towards skin de- or pro-pigmentation we used 2D culture of murine melanocytes (B16) and we performed 2 tests: 1—assessment of melanin production and 2—assessment of tyrosinase production. 1. The cell culture conditions. • B16 cells were cultured in DMEM 1 g/L glucose without phenol red supplemented with 10% foetal calf serum, in a humidified chamber at 37° C. and containing 5% CO2. 3. The production of tyrosinase by B16 murine melanocyte cell line. • Cells were incubated with the selected ingredients or the test references (Kojic acid at 400 μg/mL) for 48 hours. The production of tyrosinase was evaluated by immunolabeling.

Another series has as its system filaggrin. Kind of series: Synthesis of filaggrin by human epidermal keratinocytes (immunolabeling). Format: cell-based. The settings on record: human primary epidermal keratinocytes, 144 hours. The protocol:
The potential beneficial effect of the Extracts of Example 1 towards skin barrier function and skin hydration was evaluated by using 2D culture of human primary epidermal keratinocytes and we assessed their synthesis of filaggrin. Human epidermal keratinocytes were cultured in control keratinocytes-SFM medium, in a humidified chamber at 37° C. and containing 5% CO2. Cells were incubated with the selected ingredients or the test references (CaCl2 at 1.5 mM) for 144 hours. The production of filaggrin by was evaluated by immunolabeling.

As to `O=c1cc(CO)occ1O` [Kojic acid, reference compound], the Melanin production entry in the series with B16 murine melanocytes is recorded as “decrease in melanin production”.

On to `O=C(/C=C/c1ccc(O)c(O)c1)O[C@@H](C(=O)O)[C@@H](O)C(=O)O` [Caftaric acid], for which the “Highest non cytotoxic conc. on HDF” value in the series with HDF is 1 mM. Also, the “Highest non cytotoxic conc. on HPEK” value with HPEK is 1 mM. For the same molecule, in the series on B16 murine melanocytes, the Melanin production entry is reported as “decreased the production of melanin in vitro, more efficiently than the tested chicory extract MS-70”. The Production of tyrosinase result in the series with tyrosinase is “decreased by these ingredients but to a limited extent”. Also, in the series on filaggrin, the Filaggrin production result is given as “increased filaggrin production”.
